Source: article PMC12010937, “Evaluation of FXR Activity in Pollutants Identified in Sewage Sludge and Subsequent in Vitro and in Vivo Characterization of Metabolic Effects of Triphenyl Phosphate” (Environmental Health Perspectives, 2025)
Where two headings read alike, the source gives them in different places.

Tested on: C57BL/6N mice
Conditions: TPHP-H group, liver
[1] = adduct [M+Na]+, first of two TG 52:3 lines
[2] = adduct [M+Na]+, second of two TG 52:3 lines

`O=P(Oc1ccccc1)(Oc1ccccc1)Oc1ccccc1` [TPHP, triphenyl phosphate] was tested, and the “Z-score of CAR 6:0” value (adduct [M+H]+) was 0.97, the “Z-score of CAR 10:0” value (adduct [M+H]+) was 0.72 and the “Z-score of CAR 12:0” value (adduct [M+H]+) was 0.32. The “Z-score of CAR 16:2” value (adduct [M+H]+) was 1.03, the “Z-score of CAR 18:2” value (adduct [M+H]+) was 1.01 and the “Z-score of CAR 18:4” value (adduct [M+H]+) was 0.35. The “Z-score of CAR 20:4” value (adduct [M+H]+) was 0.29, the “Z-score of NAE 14:0” value (adduct [M+H]+) was -0.67 and the “Z-score of NAE 20:5” value (adduct [M+H]+) was -0.01. The “Z-score of PC 40:6” value (adduct [M+H]+) was -0.91, the “Z-score of PS 36:4” value (adduct [M+H]+) was 0.46 and the “Z-score of SM 27:5;O2” value (adduct [M+H]+) was 0.61. The “Z-score of SM 28:3;O3” value (adduct [M+H]+) was 0.70, the “Z-score of SM 31:3;O3” value (adduct [M+H]+) was -0.94 and the “Z-score of SM 41:2;O2” value (adduct [M+H]+) was 0.44. The “average intensity of CAR 6:0” value (adduct [M+H]+) was 3598107, the “average intensity of CAR 10:0” value (adduct [M+H]+) was 1728654 and the “average intensity of CAR 12:0” value (adduct [M+H]+) was 2142093. The “average intensity of CAR 16:2” value (adduct [M+H]+) was 3030917, the “average intensity of CAR 18:2” value (adduct [M+H]+) was 20111001 and the “average intensity of CAR 18:4” value (adduct [M+H]+) was 9217007. The “average intensity of CAR 20:4” value (adduct [M+H]+) was 30801597, the “average intensity of NAE 14:0” value (adduct [M+H]+) was 23845 and the “average intensity of NAE 20:5” value (adduct [M+H]+) was 31668356. The “average intensity of PC 40:6” value (adduct [M+H]+) was 6977163, the “average intensity of PS 36:4” value (adduct [M+H]+) was 1402007 and the “average intensity of SM 27:5;O2” value (adduct [M+H]+) was 18765822. The “average intensity of SM 28:3;O3” value (adduct [M+H]+) was 1926974, the “average intensity of SM 31:3;O3” value (adduct [M+H]+) was 284040 and the “average intensity of SM 41:2;O2” value (adduct [M+H]+) was 8959905. The “Z-score of BMP 25:4” value (adduct [M+NH4]+) was -0.92, the “Z-score of BMP 30:5” value (adduct [M+NH4]+) was -0.72 and the “Z-score of BMP 38:4” value (adduct [M+NH4]+) was -0.80. The “Z-score of PG 21:2” value (adduct [M+NH4]+) was -0.95, the “Z-score of PI 39:10” value (adduct [M+NH4]+) was -0.92 and the “Z-score of TG 48:11” value (adduct [M+NH4]+) was -0.82. For the same compound, the “Z-score of TG 55:4” value (adduct [M+NH4]+) was 1.02, the “average intensity of BMP 25:4” value (adduct [M+NH4]+) was 4738753 and the “average intensity of BMP 30:5” value (adduct [M+NH4]+) was 17597. The “average intensity of BMP 38:4” value (adduct [M+NH4]+) was 940807, the “average intensity of PG 21:2” value (adduct [M+NH4]+) was 816725 and the “average intensity of PI 39:10” value (adduct [M+NH4]+) was 61034. The “average intensity of TG 48:11” value (adduct [M+NH4]+) was 5429634, the “average intensity of TG 55:4” value (adduct [M+NH4]+) was 11320635 and the “Z-score of Cer 42:1;O2” value (adduct [M+Na]+) was -0.92. For the same compound, the “Z-score of Cer 64:6;O2” value (adduct [M+Na]+) was 0.66, the “Z-score of DG 19:1” value (adduct [M+Na]+) was -0.58 and the “Z-score of DG 26:5” value (adduct [M+Na]+) was -0.58. For the same compound, the “Z-score of DG 26:6” value (adduct [M+Na]+) was -0.75, the “Z-score of PC 29:5” value (adduct [M+Na]+) was -0.84 and the “Z-score of PC 38:6” value (adduct [M+Na]+) was -0.76. For the same compound, the “Z-score of PC 42:9” value (adduct [M+Na]+) was -0.79, the “Z-score of PS 40:7” value (adduct [M+Na]+) was 0.85 and the “Z-score of TG 52:2” value (adduct [M+Na]+) was 0.76. For the same compound, the “Z-score of TG 52:4” value (adduct [M+Na]+) was 0.88, the “average intensity of Cer 42:1;O2” value (adduct [M+Na]+) was 679331 and the “average intensity of Cer 64:6;O2” value (adduct [M+Na]+) was 17434974. For the same compound, the “average intensity of DG 19:1” value (adduct [M+Na]+) was 4218, the “average intensity of DG 26:5” value (adduct [M+Na]+) was 1190306 and the “average intensity of DG 26:6” value (adduct [M+Na]+) was 269918. The “average intensity of PC 29:5” value (adduct [M+Na]+) was 1903378, the “average intensity of PC 38:6” value (adduct [M+Na]+) was 3451074 and the “average intensity of PC 42:9” value (adduct [M+Na]+) was 130359. For the same compound, the “average intensity of PS 40:7” value (adduct [M+Na]+) was 5213900, the “average intensity of TG 52:2” value (adduct [M+Na]+) was 10933392 and the “average intensity of TG 52:4” value (adduct [M+Na]+) was 3390540. For the same compound, the “Z-score of TG 52:3” value [1] was 0.89, the “average intensity of TG 52:3” value [1] was 1451015 and the “Z-score of TG 52:3” value [2] was 0.90. The “average intensity of TG 52:3” value [2] was 11832628, the “Z-score of Cer 40:1;O2” value (adduct [M-H]-) was -0.86 and the “Z-score of Cer 41:1;3O(2OH)” value (adduct [M-H]-) was -0.76. The “Z-score of Cer 42:1;3O(2OH)” value (adduct [M-H]-) was -0.75, the “Z-score of Cer 43:1;3O(2OH)” value (adduct [M-H]-) was -0.75 and the “Z-score of FA 10:1” value (adduct [M-H]-) was -0.63. For the same compound, the “Z-score of FA 14:2” value (adduct [M-H]-) was 0.87, the “Z-score of FA 16:2;O” value (adduct [M-H]-) was 0.12 and the “Z-score of FA 19:2;O2” value (adduct [M-H]-) was 0.47. The “Z-score of PG 34:2” value (adduct [M-H]-) was -0.59, the “Z-score of PG 44:12” value (adduct [M-H]-) was -0.58 and the “Z-score of PI 36:3” value (adduct [M-H]-) was -0.62. For the same compound, the “Z-score of PI 38:4” value (adduct [M-H]-) was 0.28, the “average intensity of Cer 40:1;O2” value (adduct [M-H]-) was 112540 and the “average intensity of Cer 41:1;3O(2OH)” value (adduct [M-H]-) was 650455. For the same compound, the “average intensity of Cer 42:1;3O(2OH)” value (adduct [M-H]-) was 109690, the “average intensity of Cer 43:1;3O(2OH)” value (adduct [M-H]-) was 95819 and the “average intensity of FA 10:1” value (adduct [M-H]-) was 124984. For the same compound, the “average intensity of FA 14:2” value (adduct [M-H]-) was 2337946, the “average intensity of FA 16:2;O” value (adduct [M-H]-) was 718403 and the “average intensity of FA 19:2;O2” value (adduct [M-H]-) was 6586718. The “average intensity of PG 34:2” value (adduct [M-H]-) was 89164, the “average intensity of PG 44:12” value (adduct [M-H]-) was 16526 and the “average intensity of PI 36:3” value (adduct [M-H]-) was 224637. For the same compound, the “average intensity of PI 38:4” value (adduct [M-H]-) was 36494581.
